Tests used:
[1] = molecular target: Rho-associated protein kinase 2 (Homo sapiens) (UniProt O75116); details: Compound concentration 100.0 nM
[2] = molecular target: Dual specificity protein kinase CLK4 (Homo sapiens) (UniProt Q9HAZ1); details: Compound concentration 100.0 nM
Histamine H1 receptor = Histamine H1 receptor (Homo sapiens, UniProt P35367); details: Compound concentration 10.0 uM
[3] = molecular target: Cyclin-dependent kinase 16 (Homo sapiens) (UniProt Q00536); details: Compound concentration 100.0 nM
[4] = molecular target: Alpha-2A adrenergic receptor (Homo sapiens) (UniProt P08913); details: Compound concentration 10.0 uM
[5] = molecular target: Hormonally up-regulated neu tumor-associated kinase (Homo sapiens) (UniProt P57058); details: Compound concentration 100.0 nM
[6] = molecular target: Tyrosine-protein kinase Fer (Homo sapiens) (UniProt P16591); details: Compound concentration 100.0 nM
[7] = molecular target: Alpha-1D adrenergic receptor (Homo sapiens) (UniProt P25100); details: Compound concentration 10.0 uM
[8] = molecular target: Mitogen-activated protein kinase kinase kinase 6 (Homo sapiens) (UniProt O95382); details: Compound concentration 100.0 nM
[9] = molecular target: Ephrin type-A receptor 7 (Homo sapiens) (UniProt Q15375); details: Compound concentration 100.0 nM
[10] = tested on: ALK tyrosine kinase receptor (Homo sapiens), Q9UM73 [C1156Y]; details: Compound concentration 100.0 nM
Chain of ALK tyrosine kinase receptor (Homo sapiens), Q9UM73 [C1156Y] (Q9UM73 whole entry C1156Y, looked up): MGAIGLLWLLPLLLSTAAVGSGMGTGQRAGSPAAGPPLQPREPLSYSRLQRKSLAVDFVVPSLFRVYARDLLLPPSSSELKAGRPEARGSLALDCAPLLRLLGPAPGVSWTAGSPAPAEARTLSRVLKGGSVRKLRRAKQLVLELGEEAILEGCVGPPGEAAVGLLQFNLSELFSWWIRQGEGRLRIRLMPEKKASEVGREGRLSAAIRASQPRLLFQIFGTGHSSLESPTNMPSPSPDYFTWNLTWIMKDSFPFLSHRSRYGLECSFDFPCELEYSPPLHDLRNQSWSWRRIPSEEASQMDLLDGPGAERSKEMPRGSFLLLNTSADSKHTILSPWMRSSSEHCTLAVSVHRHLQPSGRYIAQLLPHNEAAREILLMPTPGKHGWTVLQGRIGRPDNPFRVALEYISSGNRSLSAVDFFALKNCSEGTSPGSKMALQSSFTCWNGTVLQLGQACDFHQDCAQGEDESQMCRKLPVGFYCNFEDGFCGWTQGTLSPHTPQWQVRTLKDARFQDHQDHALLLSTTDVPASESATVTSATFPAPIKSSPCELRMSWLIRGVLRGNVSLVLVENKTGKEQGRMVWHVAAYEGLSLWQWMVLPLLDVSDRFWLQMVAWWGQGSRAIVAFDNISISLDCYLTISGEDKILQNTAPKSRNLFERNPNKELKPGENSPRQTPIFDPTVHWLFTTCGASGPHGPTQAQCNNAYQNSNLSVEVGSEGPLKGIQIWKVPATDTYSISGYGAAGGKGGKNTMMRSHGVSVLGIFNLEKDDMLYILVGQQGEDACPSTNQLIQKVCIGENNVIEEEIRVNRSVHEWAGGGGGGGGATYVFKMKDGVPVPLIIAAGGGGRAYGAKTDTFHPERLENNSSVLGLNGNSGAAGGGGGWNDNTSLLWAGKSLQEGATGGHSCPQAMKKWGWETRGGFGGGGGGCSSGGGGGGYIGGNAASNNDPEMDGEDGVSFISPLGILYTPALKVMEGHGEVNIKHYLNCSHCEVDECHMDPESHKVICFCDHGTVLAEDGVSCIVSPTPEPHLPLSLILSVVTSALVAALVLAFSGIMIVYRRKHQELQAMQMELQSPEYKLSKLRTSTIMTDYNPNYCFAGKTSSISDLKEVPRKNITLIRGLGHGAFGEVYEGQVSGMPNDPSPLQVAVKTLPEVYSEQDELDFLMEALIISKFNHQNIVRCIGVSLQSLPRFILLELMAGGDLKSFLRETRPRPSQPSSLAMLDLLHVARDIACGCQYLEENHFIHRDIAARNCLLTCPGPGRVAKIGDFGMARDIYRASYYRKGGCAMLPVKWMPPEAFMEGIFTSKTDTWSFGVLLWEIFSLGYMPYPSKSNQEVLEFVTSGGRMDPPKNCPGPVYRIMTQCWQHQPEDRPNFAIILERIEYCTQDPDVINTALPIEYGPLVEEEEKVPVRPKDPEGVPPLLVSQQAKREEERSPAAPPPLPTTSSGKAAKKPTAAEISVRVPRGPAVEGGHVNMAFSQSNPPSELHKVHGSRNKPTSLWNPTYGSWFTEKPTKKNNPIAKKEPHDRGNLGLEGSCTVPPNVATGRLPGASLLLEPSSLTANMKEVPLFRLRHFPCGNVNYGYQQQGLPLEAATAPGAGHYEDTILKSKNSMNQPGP

[11] = molecular target: Maternal embryonic leucine zipper kinase (Homo sapiens) (UniProt Q14680); details: Compound concentration 100.0 nM
[12] = tested on: Hepatocyte growth factor receptor (Homo sapiens), P08581 [Y1235D]; details: Compound concentration 100.0 nM
[13] = molecular target: Cyclin-dependent kinase 7 (Homo sapiens) (UniProt P50613); details: Compound concentration 100.0 nM
[14] = molecular target: Non-receptor tyrosine-protein kinase TNK1 (Homo sapiens) (UniProt Q13470); details: Compound concentration 100.0 nM
[15] = molecular target: Serine/threonine-protein kinase 26 (Homo sapiens) (UniProt Q9P289); details: Compound concentration 100.0 nM
[16] = molecular target: Mitogen-activated protein kinase kinase kinase 7 (Homo sapiens) (UniProt O43318); details: Compound concentration 100.0 nM
[17] = molecular target: Casein kinase I isoform gamma-2 (Homo sapiens) (UniProt P78368); details: Compound concentration 100.0 nM
[18] = molecular target: cAMP-dependent protein kinase catalytic subunit PRKX (Homo sapiens) (UniProt P51817); details: Compound concentration 100.0 nM
[19] = molecular target: T1, Mitogen-activated protein kinase kinase kinase 20 (Homo sapiens, UniProt Q9NYL2); details: Compound concentration 100.0 nM
[20] = molecular target: Non-receptor tyrosine-protein kinase TYK2 (Homo sapiens) (UniProt P29597); details: Compound concentration 100.0 nM
[21] = molecular target: Serine/threonine-protein kinase WNK1 (Homo sapiens) (UniProt Q9H4A3); details: Compound concentration 100.0 nM
[22] = molecular target: Cyclin-dependent kinase 9 (Homo sapiens) (UniProt P50750); details: Compound concentration 100.0 nM
[23] = molecular target: Dual specificity protein kinase TTK (Homo sapiens) (UniProt P33981); details: Compound concentration 100.0 nM
[24] = molecular target: Protein kinase C delta type (Homo sapiens) (UniProt Q05655); details: Compound concentration 100.0 nM
[25] = molecular target: Serine/threonine-protein kinase Nek1 (Homo sapiens) (UniProt Q96PY6); details: Compound concentration 100.0 nM
[26] = molecular target: Serine/threonine-protein kinase 32A (Homo sapiens) (UniProt Q8WU08); details: Compound concentration 100.0 nM
[27] = tested on: Tyrosine-protein kinase ABL1 (Homo sapiens), P00519 [Y253F]; details: Compound concentration 100.0 nM
[28] = molecular target: 5-hydroxytryptamine receptor 2B (Homo sapiens) (UniProt P41595); details: Compound concentration 10.0 uM
[29] = molecular target: Atypical kinase COQ8B, mitochondrial (Homo sapiens) (UniProt Q96D53); details: Compound concentration 100.0 nM
[30] = tested on: Epidermal growth factor receptor (Homo sapiens), P00533 [L858R]; details: Compound concentration 100.0 nM
[31] = molecular target: Cyclin-dependent kinase 11A (Homo sapiens) (UniProt Q9UQ88); details: Compound concentration 100.0 nM
[32] = molecular target: LIM domain kinase 2 (Homo sapiens) (UniProt P53671); details: Compound concentration 100.0 nM
Chain of LIM domain kinase 2 (Homo sapiens) (P53671 whole entry, looked up, the tested form may be a part): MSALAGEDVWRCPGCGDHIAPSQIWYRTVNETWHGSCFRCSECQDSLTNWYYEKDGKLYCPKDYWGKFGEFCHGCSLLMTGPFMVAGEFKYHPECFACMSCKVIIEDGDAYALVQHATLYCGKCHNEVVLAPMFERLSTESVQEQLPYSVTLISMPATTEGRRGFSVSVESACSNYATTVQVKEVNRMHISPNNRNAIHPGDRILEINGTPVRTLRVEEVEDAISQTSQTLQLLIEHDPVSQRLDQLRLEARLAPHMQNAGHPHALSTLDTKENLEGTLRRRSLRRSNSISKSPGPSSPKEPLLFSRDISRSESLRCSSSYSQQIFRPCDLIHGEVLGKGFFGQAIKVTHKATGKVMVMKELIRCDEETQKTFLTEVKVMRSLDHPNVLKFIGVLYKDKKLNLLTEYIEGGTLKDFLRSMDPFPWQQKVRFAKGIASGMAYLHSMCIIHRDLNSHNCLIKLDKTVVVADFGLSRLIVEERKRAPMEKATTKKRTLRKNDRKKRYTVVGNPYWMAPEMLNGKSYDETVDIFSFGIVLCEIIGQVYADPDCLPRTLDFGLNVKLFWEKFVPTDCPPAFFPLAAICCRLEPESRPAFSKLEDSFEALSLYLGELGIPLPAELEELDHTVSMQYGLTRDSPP

[33] = molecular target: Muscarinic acetylcholine receptor M3 (Homo sapiens) (UniProt P20309); details: Compound concentration 10.0 uM
[34] = molecular target: Fibroblast growth factor receptor 1 (Homo sapiens) (UniProt P11362); details: Compound concentration 100.0 nM
[35] = molecular target: Serine/threonine-protein kinase pim-2 (Homo sapiens) (UniProt Q9P1W9); details: Compound concentration 100.0 nM
[36] = tested on: Leucine-rich repeat serine/threonine-protein kinase 2 (Homo sapiens), Q5S007 [G2019S]; details: Compound concentration 100.0 nM
[37] = molecular target: Serine/threonine-protein kinase PAK 3 (Homo sapiens) (UniProt O75914); details: Compound concentration 100.0 nM
[38] = tested on: Epidermal growth factor receptor (Homo sapiens), P00533 [L861Q]; details: Compound concentration 100.0 nM
[39] = tested on: Mast/stem cell growth factor receptor Kit (Homo sapiens), P10721 [V559D]; details: Compound concentration 100.0 nM
Chain of Mast/stem cell growth factor receptor Kit (Homo sapiens), P10721 [V559D] (P10721 whole entry V559D): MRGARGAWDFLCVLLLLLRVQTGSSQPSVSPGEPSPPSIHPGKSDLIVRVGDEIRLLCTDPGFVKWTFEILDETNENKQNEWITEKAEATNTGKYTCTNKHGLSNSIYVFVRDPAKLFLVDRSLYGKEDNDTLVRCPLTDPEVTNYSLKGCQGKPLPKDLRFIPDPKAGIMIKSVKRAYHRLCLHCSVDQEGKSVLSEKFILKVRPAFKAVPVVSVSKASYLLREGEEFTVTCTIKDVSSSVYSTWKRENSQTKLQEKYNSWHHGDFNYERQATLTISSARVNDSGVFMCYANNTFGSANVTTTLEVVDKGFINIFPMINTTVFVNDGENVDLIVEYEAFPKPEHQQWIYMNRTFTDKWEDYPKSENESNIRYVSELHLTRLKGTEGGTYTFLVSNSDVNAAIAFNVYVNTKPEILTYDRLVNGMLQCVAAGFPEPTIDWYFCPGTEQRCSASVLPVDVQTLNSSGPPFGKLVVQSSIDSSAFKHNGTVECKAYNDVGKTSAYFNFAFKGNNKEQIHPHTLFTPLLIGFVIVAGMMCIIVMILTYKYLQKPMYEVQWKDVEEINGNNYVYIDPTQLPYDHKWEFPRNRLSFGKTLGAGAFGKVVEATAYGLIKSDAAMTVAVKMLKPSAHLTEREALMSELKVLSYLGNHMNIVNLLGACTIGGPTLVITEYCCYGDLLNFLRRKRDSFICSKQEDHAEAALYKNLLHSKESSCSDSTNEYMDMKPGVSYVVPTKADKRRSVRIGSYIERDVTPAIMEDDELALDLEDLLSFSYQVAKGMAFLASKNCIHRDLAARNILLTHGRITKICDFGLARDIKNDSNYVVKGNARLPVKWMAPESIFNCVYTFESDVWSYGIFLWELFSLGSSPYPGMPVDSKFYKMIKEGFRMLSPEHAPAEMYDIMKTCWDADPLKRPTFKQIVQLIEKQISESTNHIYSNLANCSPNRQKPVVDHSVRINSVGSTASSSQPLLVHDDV

[40] = molecular target: T1, Mitogen-activated protein kinase kinase kinase 20; experiment: NanoBRET (MAP3K20)
[41] = molecular target: Serine/threonine-protein kinase 33 (Homo sapiens) (UniProt Q9BYT3); details: Compound concentration 100.0 nM
[42] = molecular target: Sodium-dependent serotonin transporter (Homo sapiens) (UniProt P31645); details: Compound concentration 10.0 uM
Chain of Sodium-dependent serotonin transporter (Homo sapiens) (P31645 whole entry, looked up): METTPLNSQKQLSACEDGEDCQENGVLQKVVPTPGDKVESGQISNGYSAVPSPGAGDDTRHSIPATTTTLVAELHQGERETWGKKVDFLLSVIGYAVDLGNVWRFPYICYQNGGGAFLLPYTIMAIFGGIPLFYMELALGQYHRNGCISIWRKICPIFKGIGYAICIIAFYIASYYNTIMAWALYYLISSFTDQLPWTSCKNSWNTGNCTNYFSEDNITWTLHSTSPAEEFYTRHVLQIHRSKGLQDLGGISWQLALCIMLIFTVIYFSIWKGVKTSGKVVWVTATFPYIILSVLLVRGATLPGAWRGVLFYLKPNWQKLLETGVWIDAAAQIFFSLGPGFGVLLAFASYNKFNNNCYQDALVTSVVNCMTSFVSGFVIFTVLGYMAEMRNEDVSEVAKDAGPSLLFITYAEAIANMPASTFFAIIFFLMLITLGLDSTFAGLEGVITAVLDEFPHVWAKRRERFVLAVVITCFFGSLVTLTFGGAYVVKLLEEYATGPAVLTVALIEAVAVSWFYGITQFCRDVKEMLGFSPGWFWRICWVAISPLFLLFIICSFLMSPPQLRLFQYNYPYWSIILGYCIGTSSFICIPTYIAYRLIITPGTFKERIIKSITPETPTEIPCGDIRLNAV

[43] = molecular target: Protein kinase C iota type (Homo sapiens) (UniProt P41743); details: Compound concentration 100.0 nM
[44] = molecular target: Ephrin type-A receptor 2 (Homo sapiens) (UniProt P29317); details: Compound concentration 100.0 nM
Chain of Ephrin type-A receptor 2 (Homo sapiens) (P29317 whole entry): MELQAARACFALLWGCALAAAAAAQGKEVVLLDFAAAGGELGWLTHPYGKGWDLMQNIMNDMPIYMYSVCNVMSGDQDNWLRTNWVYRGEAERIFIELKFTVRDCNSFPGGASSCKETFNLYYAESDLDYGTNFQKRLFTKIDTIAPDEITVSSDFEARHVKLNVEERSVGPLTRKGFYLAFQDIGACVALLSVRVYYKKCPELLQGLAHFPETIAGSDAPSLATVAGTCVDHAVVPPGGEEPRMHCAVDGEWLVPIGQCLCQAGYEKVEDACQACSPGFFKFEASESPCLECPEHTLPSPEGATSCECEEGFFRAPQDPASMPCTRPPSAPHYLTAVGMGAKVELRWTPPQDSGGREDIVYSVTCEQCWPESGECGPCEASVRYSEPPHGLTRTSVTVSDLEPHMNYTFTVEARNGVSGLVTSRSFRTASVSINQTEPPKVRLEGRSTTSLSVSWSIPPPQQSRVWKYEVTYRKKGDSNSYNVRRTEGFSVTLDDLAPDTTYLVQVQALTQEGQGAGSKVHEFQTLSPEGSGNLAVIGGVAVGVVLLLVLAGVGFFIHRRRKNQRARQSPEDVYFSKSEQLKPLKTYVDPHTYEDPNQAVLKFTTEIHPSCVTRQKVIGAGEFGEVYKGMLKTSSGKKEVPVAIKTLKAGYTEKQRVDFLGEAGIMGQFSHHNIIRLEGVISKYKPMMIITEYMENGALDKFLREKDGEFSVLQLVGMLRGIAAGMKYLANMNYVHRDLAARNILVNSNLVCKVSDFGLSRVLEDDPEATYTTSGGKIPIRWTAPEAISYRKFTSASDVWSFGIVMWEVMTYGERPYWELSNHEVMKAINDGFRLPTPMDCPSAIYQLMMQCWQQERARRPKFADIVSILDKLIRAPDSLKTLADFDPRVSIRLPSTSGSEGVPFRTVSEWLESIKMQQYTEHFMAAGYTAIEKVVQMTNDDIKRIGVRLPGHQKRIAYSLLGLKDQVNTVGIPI

[45] = molecular target: Mitotic checkpoint serine/threonine-protein kinase BUB1 (Homo sapiens) (UniProt O43683); details: Compound concentration 100.0 nM

Nc1c(C(=O)NCc2ccc(C(=O)NCCCC3CCCCC3)cc2)cnn1-c1ccccc1 [SR-318]
residual activity [1]: 100%
residual activity [2]: 96%
inhibition (Histamine H1 receptor): 14.7%
residual activity [3]: 97%
inhibition [4]: 4.08%
residual activity [5]: 100%
residual activity [6]: 90%
inhibition [7]: 22%
residual activity [8]: 100%
residual activity [9]: 100%
residual activity [10]: 100%
residual activity [11]: 92%
residual activity [12]: 94%
residual activity [13]: 100%
residual activity [14]: 91%
residual activity [15]: 97%
residual activity [16]: 100%
residual activity [17]: 94%
residual activity [18]: 87%
residual activity [19]: 42%
residual activity [20]: 88%
residual activity [21]: 100%
residual activity [22]: 100%
residual activity [23]: 100%
residual activity [24]: 88%
residual activity [25]: 84%
residual activity [26]: 96%
residual activity [27]: 100%
inhibition [28]: 19.9%
residual activity [29]: 100%
residual activity [30]: 100%
residual activity [31]: 100%
residual activity [32]: 100%
inhibition [33]: 25.2%
residual activity [34]: 71%
residual activity [35]: 100%
residual activity [36]: 100%
residual activity [37]: 100%
residual activity [38]: 90%
residual activity [39]: 45%
IC50 [40]: 0.91 µM (not active)
residual activity [41]: 96%
inhibition [42]: 7.75%
residual activity [43]: 97%
residual activity [44]: 100%
residual activity [45]: 86%

O=C(NCCCC1CCCCC1)c1ccc(CNC(=O)c2cnn(-c3ccccc3)c2C(F)(F)F)cc1 [SR-321]
residual activity [1]: 100%
residual activity [2]: 100%
inhibition (Histamine H1 receptor): 63%
residual activity [3]: 100%
inhibition [4]: -2.46%
residual activity [5]: 100%
residual activity [6]: 98%
inhibition [7]: 10.1%
residual activity [8]: 100%
residual activity [9]: 86%
residual activity [10]: 100%
residual activity [11]: 80%
residual activity [12]: 100%
residual activity [13]: 100%
residual activity [14]: 88%
residual activity [15]: 93%
residual activity [16]: 89%
residual activity [17]: 96%
residual activity [18]: 100%
residual activity [19]: 100%
residual activity [20]: 100%
residual activity [21]: 100%
residual activity [22]: 100%
residual activity [23]: 91%
residual activity [24]: 100%
residual activity [25]: 58%
residual activity [26]: 76%
residual activity [27]: 98%
inhibition [28]: 3.69%
residual activity [29]: 100%
residual activity [30]: 100%
residual activity [31]: 100%
residual activity [32]: 100%
inhibition [33]: 19.5%
residual activity [34]: 100%
residual activity [35]: 100%
residual activity [36]: 100%
residual activity [37]: 100%
residual activity [38]: 100%
residual activity [39]: 100%
IC50 [40]: 5.8 µM (not active)
residual activity [41]: 87%
inhibition [42]: 0.18%
residual activity [43]: 100%
residual activity [44]: 80%
residual activity [45]: 100%

— ChEMBL document CHEMBL4507315 (2021)
